Consider eleven compounds from US8124788B2, “Spirocyclic cyclohexane compounds with analgesic activity” (Gruenenthal GmbH, priority 2006, dated 2012).

Molecules are shown by their SMILES.

The target in the experiment is T1, human μ opiate receptor (Homo sapiens, UniProt P35372).
T1 construct: purchased PerkinElmer Life Sciences, Zaventem, Belgium RB-HOM; host or cells: CHO-K1 cells (recombinant expression)
Description: Affinity for the human μ opiate receptor ([3H]-naloxone displacement, CHO-K1 membrane preparation, SPA). It counts as binding. Particulars: compounds prepared via automated synthesis; single measurements at a test concentration of 1 μM. As to the method:
The receptor affinity for the human μ opiate receptor is determined in a homogeneous set-up in microtitre plates. For this purpose, dilution series of the substances to be tested are incubated with a receptor membrane preparation (15-40 μg of protein/250 μl of incubation batch) of CHO-K1 cells which express the human μ opiate receptor (RB-HOM receptor membrane preparation from PerkinElmer Life Sciences, Zaventem, Belgium) in the presence of 1 nmol/l of the radioactive ligand [^3H]-naloxone (NET719, PerkinElmer Life Sciences, Zaventem, Belgium) and 1 mg of WGA-SPA-Beads (wheat germ agglutinin SPA beads from Amersham/Pharmacia, Freiburg, Germany) in a total volume of 250 μl for 90 minutes at room temperature. 50 mmol/l of Tris-HCl supplemented with 0.06% of bovine serum albumin are used as the incubation buffer. 100 μmol/l of naloxone are additionally added for determination of the non-specific binding. After the end of the ninety-minute incubation time, the microtitre plates are centrifuged for 20 minutes at 1,000 g and the radioactivity is measured in a β-counter (Microbeta-Trilum, PerkinElmer Wallac, Freiburg, Germany). The percentage displacement of the radioactive ligand from its binding to the human μ opiate receptor is determined at a concentration of the test substances of 1 μmol/l and stated as the percentage inhibition of the specific binding. Starting from the percentage displacement by various concentrations of the test substances, IC50 inhibitory concentrations which cause a 50 percent displacement of the radioactive ligand are calculated. By conversion by means of the Cheng-Prusoff relationship, Ki values for the test substances are obtained.

T1 sequence (P35372 whole entry): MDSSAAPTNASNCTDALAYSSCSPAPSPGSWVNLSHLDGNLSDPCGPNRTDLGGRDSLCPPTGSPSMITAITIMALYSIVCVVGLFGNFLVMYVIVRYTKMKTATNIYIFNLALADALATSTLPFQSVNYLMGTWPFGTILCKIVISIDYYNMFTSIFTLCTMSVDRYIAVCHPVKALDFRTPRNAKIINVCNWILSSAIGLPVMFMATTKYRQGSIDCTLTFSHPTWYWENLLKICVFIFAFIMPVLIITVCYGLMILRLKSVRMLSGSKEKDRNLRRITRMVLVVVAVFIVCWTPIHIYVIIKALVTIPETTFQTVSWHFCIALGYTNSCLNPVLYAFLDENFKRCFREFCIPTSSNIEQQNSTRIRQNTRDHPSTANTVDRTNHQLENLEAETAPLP

Regarding `CN(C)C(c1ccc(F)cc1)C1CCC2(CC1)c1[nH]c3ccccc3c1CCN2C(=O)CC(C)(C)C` (centres unmarked) [Compound 62, 1-{1,1-[3-(dimethylamino-(4-fluorophenyl)methyl) -pentamethylene]-3,4-dihydro-1H-2,9-diazafluoren-2-yl}-3,3-dimethylbutan-1-one], the “μ opioid receptor [1 μmol], % inhibition” value was 12%.

Take `CN(C)C(c1ccc(F)cc1)C1CCC2(CC1)c1[nH]c3ccccc3c1CCN2C(=O)CCC1CCCC1` (centres unmarked) [Compound 85, 2-(3-cyclopentylpropanoyl)-{1,1-[3-(dimethylamino-(4-fluorophenyl)methyl)-pentamethylene]-3,4-dihydro-1H-2,9-diazafluorene}]: the “μ opioid receptor [1 μmol], % inhibition” value was 50%.

As for `CN(C)C(c1ccc(Cl)cc1)C1CCC2(CC1)c1[nH]c3ccccc3c1CCN2C(=O)C1CCCCC1` (centres unmarked) [Compound 76, 2-(cyclohexylcarbonyl)-{1,1-[3-(dimethylamino-(4-chlorophenyl)methyl)-pentamethylene]-3,4-dihydro-1H-2,9-diazafluorene}], the “μ opioid receptor [1 μmol], % inhibition” value was determined as 15%.

Take `CN(C)C(c1ccccc1)C1CCC2(CC1)c1[nH]c3ccccc3c1CCN2C(=O)COc1ccc(Cl)cc1` (centres unmarked) [Compound 60, 2-[(4-chlorophenoxy)acetyl]-{1,1-[3-(dimethylamino-phenylmethyl)-pentamethylene]-3,4-dihydro-1H-2,9-diazafluorene}]: the “μ opioid receptor [1 μmol], % inhibition” value stood at 26%.

With `CN(C)C(c1ccccc1)C1CCC2(CC1)c1[nH]c3ccccc3c1CCN2C(=O)CC(C)(C)C` (centres unmarked) [Compound 56, 1-{1,1-[3-(dimethylamino-phenylmethyl)-pentamethylene]-3,4-dihydro-1H-2,9-diazafluoren-2-yl}-3,3-dimethylbutan-1-one], the “μ opioid receptor [1 μmol], % inhibition” value is reported as 36%.

On to `CC(C)C(=O)N1CCc2c([nH]c3ccccc23)C12CCC(C(c1ccccc1)N(C)C)CC2` (centres unmarked) [Compound 101, 2-isobutyryl-{1,1-[3-(dimethylamino-phenylmethyl) -pentamethylene]-3,4-dihydro-1H-2,9-diazafluorene}], for which the “μ opioid receptor [1 μmol], % inhibition” value stood at 74%.

With `CN(C)C(c1ccc(Cl)cc1)C1CCC2(CC1)c1[nH]c3ccccc3c1CCN2C(=O)Cc1cccc(Br)c1` (centres unmarked) [Compound 132, 2-[(3-bromophenyl)acetyl]-{1,1-[3-(dimethylamino-(4-chlorophenyl)-methyl)-pentamethylene]-3,4-dihydro-1H-2,9-diazafluorene}], the “μ opioid receptor [1 μmol], % inhibition” value is on record as 65%.

On to `CN(C)C(c1ccccc1)C1CCC2(CC1)c1[nH]c3ccccc3c1CCN2C(=O)c1csc2ccccc12` (centres unmarked) [Compound 103, 2-(1-benzothien-3-ylcarbonyl)-{1,1-[3-(dimethylamino-phenylmethyl)-pentamethylene]-3,4-dihydro-1H-2,9-diazafluorene}], for which the “μ opioid receptor [1 μmol], % inhibition” value stood at 13%.

For the compound `CN(C)C(c1cccc(F)c1)C1CCC2(CC1)c1[nH]c3ccccc3c1CCN2C(=O)COCc1ccccc1` (centres unmarked) [Compound 94, 2-(benzyloxyacetyl)-{1,1-[3-(dimethylamino-(3-fluorophenyl)methyl)-pentamethylene]-3,4-dihydro-1H-2,9-diazafluorene}], the “μ opioid receptor [1 μmol], % inhibition” value amounted to 32%.

On to `CC(=Cc1ccccc1)C(=O)N1CCc2c([nH]c3ccccc23)C12CCC(C(c1ccc(Cl)cc1)N(C)C)CC2` (centres unmarked) [Compound 75, 1-{1,1-[3-(dimethylamino-(4-chlorophenyl)methyl) -pentamethylene]-3,4-dihydro-1H-2,9-diazafluoren-2-yl}-2-methyl-3-phenylprop-2-en-1-one], for which the “μ opioid receptor [1 μmol], % inhibition” value was determined as 13%.

On to `CCC(=O)N1CCc2c([nH]c3ccccc23)C12CCC(C(c1cccc(F)c1)N(C)C)CC2` (centres unmarked) [Compound 113, 2-propionyl-{1,1-[3-(dimethylamino-(3-fluorophenyl)methyl)-pentamethylene]-3,4-dihydro-1H-2,9-diazafluorene}], for which the “μ opioid receptor [1 μmol], % inhibition” value was 13%.
